{"source": "PubChem BioAssay (NCI)", "experiment_in_all_cases": "NCI tumour cell line growth inhibition, 48 h", "key": {"[1]": {"system": "SF-268 CNS"}, "[2]": {"system": "BT-549 breast"}, "[3]": {"system": "SR leukemia"}, "[4]": {"system": "HOP-92 NSCLC"}, "[5]": {"system": "M14 melanoma"}, "[6]": {"system": "LOX IMVI melanoma"}, "[7]": {"system": "NCI-H460 lung"}, "[8]": {"system": "A498 renal"}, "[9]": {"system": "OVCAR-5 ovarian"}, "[10]": {"system": "SF-539 CNS"}, "[11]": {"system": "ACHN renal"}, "[12]": {"system": "HT29 colon"}, "[13]": {"system": "DU-145 prostate"}, "[14]": {"system": "SK-MEL-28 melanoma"}, "[15]": {"system": "NCI/ADR-RES ovarian"}, "[16]": {"system": "KM12 colon"}, "[17]": {"system": "RPMI-8226 leukemia"}, "[18]": {"system": "OVCAR-3 ovarian"}, "[19]": {"system": "MOLT-4 leukemia"}, "[20]": {"system": "HCT-116 colon"}, "[21]": {"system": "CCRF-CEM leukemia"}, "[22]": {"system": "SK-OV-3 ovarian"}, "[23]": {"system": "U251 CNS"}, "[24]": {"system": "OVCAR-8 ovarian"}, "[25]": {"system": "SNB-75 CNS"}, "[26]": {"system": "EKVX NSCLC"}, "[27]": {"system": "HCC-2998 colon"}, "[28]": {"system": "PC-3 prostate"}, "[29]": {"system": "UACC-257 melanoma"}}, "note": "“And” between values parts separate entries of the source, which are not always exact repeats. Equal entries are not always repeated.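 Exposure lasted 48 hours, with cells grown in 96-well plates and compounds tested at five concentrations. GI50 marks 50% less growth. Definition used: TGI = concentration required for complete inhibition of growth.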", "data": [{"smiles": "O=C(Nc1cc(C(F)(F)F)cc(C(F)(F)F)c1)c1cc(Cl)ccc1O", "values": [{"measurement": "GI50", "setting": "[1]", "value": 210, "unit": "nM"}, {"measurement": "TGI", "setting": "[1]", "value": "2100 nM and 2820 nM"}, {"measurement": "GI50", "setting": "[2]", "value": "206 nM and 213 nM"}, {"measurement": "TGI", "setting": "[2]", "value": "714 nM and 712 nM"}, {"measurement": "GI50", "setting": "[3]", "value": "218 nM and 228 nM"}, {"measurement": "GI50", "setting": "[4]", "value": "120 nM and 41.2 nM"}, {"measurement": "TGI", "setting": "[4]", "value": "418 nM and 304 nM"}, {"measurement": "GI50", "setting": "[5]", "value": "291 nM and 273 nM"}, {"measurement": "TGI", "setting": "[5]", "value": "1250 nM and 1540 nM"}, {"measurement": "GI50", "setting": "[6]", "value": "316 nM and 366 nM"}, {"measurement": "TGI", "setting": "[6]", "value": "1510 nM and 2680 nM"}, {"measurement": "GI50", "setting": "[7]", "value": "271 nM and 290 nM"}, {"measurement": "TGI", "setting": "[7]", "value": "1420 nM and 1940 nM"}, {"measurement": "GI50", "setting": "[8]", "value": "45 nM and < 14.1 nM"}, {"measurement": "TGI", "setting": "[8]", "value": "241 nM and 178 nM"}, {"measurement": "GI50", "setting": "[9]", "value": "305 nM and 357 nM"}, {"measurement": "TGI", "setting": "[9]", "value": "> 5.03 µM and 15.9 µM"}, {"measurement": "GI50", "setting": "[10]", "value": "300 nM and 264 nM"}, {"measurement": "TGI", "setting": "[10]", "value": "1880 nM and 1590 nM"}, {"measurement": "GI50", "setting": "[11]", "value": "294 nM and 260 nM"}, {"measurement": "TGI", "setting": "[11]", "value": "1190 nM and 978 nM"}, {"measurement": "GI50", "setting": "[12]", "value": "339 nM and 401 nM"}, {"measurement": "TGI", "setting": "[12]", "value": "> 10 µM and 12 µM"}, {"measurement": "GI50", "setting": "[13]", "value": "345 nM and 347 nM"}, {"measurement": "TGI", "setting": "[13]", "value": "> 5.23 µM and 10.8 µM"}, {"measurement": "GI50", "setting": "[14]", "value": "285 nM and 199 nM"}, {"measurement": "TGI", "setting": "[14]", "value": "1840 nM and 1310 nM"}, {"measurement": "GI50", "setting": "[15]", "value": "227 nM and 257 nM"}, {"measurement": "TGI", "setting": "[15]", "value": "> 2.76 µM and 3.87 µM"}, {"measurement": "GI50", "setting": "[16]", "value": "318 nM and 312 nM"}, {"measurement": "TGI", "setting": "[16]", "value": "1140 nM and 1120 nM"}, {"measurement": "GI50", "setting": "[17]", "value": "116 nM and 155 nM"}, {"measurement": "TGI", "setting": "[17]", "value": "578 nM and 713 nM"}, {"measurement": "GI50", "setting": "[18]", "value": "239 nM and 230 nM"}, {"measurement": "TGI", "setting": "[18]", "value": "> 3.54 µM and 9.93 µM"}, {"measurement": "GI50", "setting": "[19]", "value": "269 nM and 332 nM"}, {"measurement": "TGI", "setting": "[19]", "value": "845 nM and 2690 nM"}, {"measurement": "GI50", "setting": "[20]", "value": "213 nM and 238 nM"}, {"measurement": "TGI", "setting": "[20]", "value": "999 nM and 1160 nM"}, {"measurement": "GI50", "setting": "[21]", "value": "237 nM and 378 nM"}, {"measurement": "TGI", "setting": "[21]", "value": "1.3 µM and 7.79 µM"}, {"measurement": "GI50", "setting": "[22]", "value": "185 nM and 181 nM"}, {"measurement": "TGI", "setting": "[22]", "value": "642 nM and 947 nM"}, {"measurement": "GI50", "setting": "[23]", "value": "234 nM and 228 nM"}, {"measurement": "TGI", "setting": "[23]", "value": "> 9.5 µM and 7.9 µM"}, {"measurement": "GI50", "setting": "[24]", "value": "278 nM and 285 nM"}, {"measurement": "TGI", "setting": "[24]", "value": "3.85 µM and 6.08 µM"}, {"measurement": "GI50", "setting": "[25]", "value": "159 nM and 172 nM"}, {"measurement": "TGI", "setting": "[25]", "value": 586, "unit": "nM"}, {"measurement": "GI50", "setting": "[26]", "value": "295 nM and 288 nM"}, {"measurement": "TGI", "setting": "[26]", "value": "> 3.58 µM and 3.43 µM"}, {"measurement": "GI50", "setting": "[27]", "value": "307 nM and 349 nM"}, {"measurement": "TGI", "setting": "[27]", "value": "1330 nM and 3630 nM"}, {"measurement": "GI50", "setting": "[28]", "value": "257 nM and 266 nM"}, {"measurement": "TGI", "setting": "[28]", "value": "> 3.02 µM and 3.78 µM"}, {"measurement": "GI50", "setting": "[29]", "value": "196 nM and 194 nM"}, {"measurement": "TGI", "setting": "[29]", "value": "750 nM and 1210 nM"}]}]}
